Type in all cases: in vivo, rat
Assay [1] concerns STZ diabetic rats. The assay can be described thus: Serum total protein, creatinine and uric acid in STZ diabetic rats. The settings on record: Glibenclamide 10 mg/kg p.o. (Group III), 21 days, ± S.E, n=6. As to the method: (§1) The garlic tablet at the said dosages was subjected to efficacy studies in diabetic animal models. For the efficacy studies on diabetes, studies were carried out using male Wistar albino rats (150-200 g). The animals were grouped and housed in polyacrylic cages with not more than six animals per cage and maintained under standard laboratory conditions (temperature 25°±2° C.) with dark and light cycle (12/12 h). The animals were fed with standard pellet diet supplied by Hindustan Lever Ltd., India and fresh water ad libitum. All the animals were acclimatized to laboratory condition for a week before commencement of experiment. […] were divided into five groups for further experiments.
(§2) Rats were randomly allocated to five groups. Diabetes was induced by a single intraperitoneal injection of 120 mg/kg of Streptozotocin (STZ) in citrate buffer (0.1 M, pH 4.5). Group I consisted of normal healthy rats that were administered 1 ml/kg of 0.5% carboxy methylcellulose (CMC) solution orally. Group II consisted of diabetic rats used as control and were administered orally 1 ml/kg of 0.5% carboxy methylcellulose solution. Groups III consisted of diabetic rats treated daily with oral administration of 10 mg/kg of glibenclamide. Group IV consisted of diabetic rats treated orally with 500 mg of tablet suspended in 0.5% carboxy methylcellulose solution. Group V consisted of diabetic rats treated orally with 1000 mg of tablet suspended in 0.5% carboxy methylcellulose solution.
(§3) All the test drugs were administered for 21 days. Blood glucose levels were estimated on the 1st, 3rd, 7th, 14th and 21st day by collecting tail vein using glucometer during drug treatment. On the 22nd day, the blood was collected for biochemical estimation by sinus puncture under anesthesia. The animals were sacrificed by cervical dislocation and organs were removed for histopathological studies.

Assay [2] can be described thus: Body weight development in STZ diabetic rats. The settings on record: Glibenclamide 10 mg/kg p.o. (Group III), ± S.E, n=6. As to the method:
as §1
as §2, with “Group V consisted of diabetic rats treated orally with 1000 mg of tablet suspended in 0.5% carboxy methylcellulose solution.” left out

In assay [3] the test system is STZ diabetic rats. In words: Serum AST, ALT and ALP in STZ diabetic rats. The settings on record: Glibenclamide 10 mg/kg p.o. (Group III), 21 days, ± S.E, n=6. As to the method: as §1, §2, §3
Assay [4] concerns STZ diabetic rats. In words: Hemoglobin, glycosylated hemoglobin and plasma insulin in STZ diabetic rats. As to conditions: Glibenclamide 10 mg/kg p.o. (Group III), 21 days, ± S.E, n=6. As to the method: as §1
as §2, with “Group V consisted of diabetic rats treated orally with 1000 mg of tablet suspended in 0.5% carboxy methylcellulose solution.” left out

Assay [5] concerns STZ induced diabetic rats. The assay can be described thus: Blood glucose in STZ induced diabetic rats (glucometer, tail vein). As to conditions: Glibenclamide 10 mg/kg p.o. daily, n=6. As to the method:
as §1, §2, §3

For the compound `COc1ccc(Cl)cc1C(=O)NCCc1ccc(S(=O)(=O)NC(=O)NC2CCCCC2)cc1` [Glibenclamide, glibenclamide], in the assay on STZ diabetic rats [1], the Creatinine was 1.04 ± 0.01^b** mg/dl, the Protein is listed as 126.4 ± 2.84^b*** mg/dl and the Uric acid is reported as 1.57 ± 0.06^b*** mg/dl. Besides, in assay [2] (21 days), the “Body Weight Final” value is reported as 161.13 ± 2.14^b* g. Moreover, the “Body Weight Initial” value in assay [2] worked out at 163.6 ± 1.42 g. In the assay with STZ diabetic rats [3], the ALP was 171.9 ± 4.07 ^b*** μmoles of phenol liberated/min/mg of protein, the ALT is reported as 56.4 ± 1.54 ^b*** μmoles of pyruvate/h/mg/of protein and the AST is recorded as 161.0 ± 64.0 ^b*** μmoles of pyruvate/h/mg/of protein. In the assay on STZ diabetic rats [4], the HBA1C is 0.17 ± 0.008^b*** % Hb and the “Plasma Insulin” value is on record as 16.4 ± 0.27^b*** μU/ml. In addition, the “Blood Sugar, 1 Day” value in assay [5] (day 1, mean) was found to be 290.50 mg/dL. The “Blood Sugar, 3 Day” value in assay [5] (day 3, mean) was 210.17 mg/dL. Further, the “Blood Sugar, 7 Day” value in assay [5] (day 7, mean) was 157.67 mg/dL. The “Blood Sugar, 14 Day” value in assay [5] (day 14, mean) was found to be 124.50 mg/dL. In assay [5] (day 21, mean), the “Blood Sugar, 21 Day” value stood at 113.17 mg/dL.

Source of the values: patent US20140147528A1, “GARLIC FORMULATION AND A PROCESS FOR PREPARING THE SAME FOR TREATMENT OF DIABETES” (priority 2012, published 2014).
